Source: patent EP4813985A1, “PREPARATION OF QUINAZOLINONE DERIVATIVE AS KINASE INHIBITOR, AND USE THEREOF” (Xizang Haisco Pharmaceutical Co., Ltd., priority 2023, dated 2025)
Like-named read-outs stand apart in the source and are kept apart here. Values belong to the molecule of their own block, whether it stands above or below them.

Key:
[1] = test system: A375 cells; test: A375 cell proliferation inhibition test; type: cell-based; details: Homo sapiens, A-375, 72 h
Method: A375 cells (ATCC, CRL-1619) were cultured in DMEM complete medium (+10% FBS) in a CO2 incubator at 37°C for 48 h. The cells were trypsinised and counted, and then the density was adjusted to 1.67 × 10^4 cells/mL. 90 µL (1500 cells) of cells were inoculated into each well of a 96-well transparent bottom plate, and the plate was transferred to a CO2 incubator and the cells were cultured at 37°C overnight. After the cells were incubated overnight, 10 µL of the diluted compound (final concentration starting from 10 µM, 3-fold dilution, 11 concentrations) was added to each well using a multi-channel pipette. The […] control was a serum-free medium containing DMSO. After mixing evenly, the cells were placed in a CO2 incubator at 37°C for 72 h. After the incubation, the CellCounting-Lite®2.0 kit detection solution (Vazyme, DD1101-03) was taken out and returned to room temperature. 100 µL of CellCounting-Lite2.0 detection solution was added to each well, the plate was sealed with a sealing film, and the plate was placed on a shaker for shaking for 15 min (the whole process should be kept away from light). The Luminescence module of the microplate reader (BMG LRBTECH) was used to detect the fluorescence signal value LUM of each well. The formula Inhibition rate% = ((LUM Solvent−LUM Compound)/(LUM Solvent))∗100% [formula] was used to calculate the inhibition rate of the compound. The Graphpad software log(inhibitor) vs. response -- Variable slope (four parameters) equation was used to perform fitting analysis and calculate the IC50value of the sample. The ordinate of the data is the percentage of inhibition rate, and the abscissa is the logarithm of the sample concentration (Log10).

[2] = Pharmacokinetic test in rats; type: in vivo, SD rats; details: rat, plasma; for Vd: read-out: Vdss
Method: 5.1 Experimental animals: Male SD rats, about 220 g, 6-8 weeks old, 6 rats/compound, purchased from Chengdu Dossy Experimental Animals Co., Ltd.
5.2 Experimental design: On the day of the experiment, the SD rats were randomly grouped according to their body weights. The animals were fasted with water available for 12-14 h one day before the administration, and were fed 4 h after the administration.
5.3 Test compounds: compounds in the examples and control compounds. Table 5.1 Administration information
Before and after administration, 0.1 ml of blood was taken from the orbit under isoflurane anaesthesia and placed in an EDTAK2 centrifuge tube. The tube was centrifuged at 5000 rpm at 4°C for 10 min, and plasma was collected. Blood sampling time points for the intravenous administration group: 0 min, 5 min, 15 min, 30 min, 1 h, 2 h, 4 h, 6 h, 8 h, 24 h, and 48 h; blood sampling time points for the intragastric administration group: 0 min, 5 min, 15 min, 30 min, 1 h, 2 h, 4 h, 6 h, 8 h, 24 h, and 48 h. Before analysis and detection, all samples were stored at -80°C, and the samples were quantitatively analysed by LC-MS/MS. Table 5.2 Pharmacokinetic parameters of test compounds in plasma of rats

[3] = target: T1, BRAFV600E (Homo sapiens, UniProt P15056, V600E); test: BRAFV600E enzyme activity test (ADP-Glo, MEK1K97R substrate); type: biochemical; details: Inhibitory activities of compounds on BRAFV600E
T1 construct: purchased ABCAM ab204154
T1 sequence (P15056 416-766 V600E limits assumed): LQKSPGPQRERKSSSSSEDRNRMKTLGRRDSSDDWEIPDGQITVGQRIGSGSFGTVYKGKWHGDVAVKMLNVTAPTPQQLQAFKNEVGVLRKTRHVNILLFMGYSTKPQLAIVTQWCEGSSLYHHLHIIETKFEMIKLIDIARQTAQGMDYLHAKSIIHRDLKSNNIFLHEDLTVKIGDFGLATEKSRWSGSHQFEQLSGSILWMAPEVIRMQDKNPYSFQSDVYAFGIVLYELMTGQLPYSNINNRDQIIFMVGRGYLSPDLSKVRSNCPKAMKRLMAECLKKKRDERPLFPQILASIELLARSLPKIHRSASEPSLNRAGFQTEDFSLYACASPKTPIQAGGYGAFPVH
Method: BRAFV600E (ABCAM, ab204154) and MEK1K97R (USBio, M2865-06J) proteins were diluted at an appropriate dilution factor using 1×Assay buffer (PH = 7.4 Tris-HCl buffer, supplemented with 10 mM MgCl2) such that the final concentration of BRAFV600E was 10 ng/µL and the final concentration of substrate MEK1K97R was 1 µM. 1 µL of BRAFV600E, 1 µL of compound serial dilution (final concentration starting from 2 µM, 5-fold dilution, 8 concentrations), and 6 µL of Assay buffer were pipetted to a 384-well reaction plate with a capacity of 20 µL. The plate was pre-incubated in a constant temperature incubator at 37°C for 30 min. 1 µL of 200 µM ATP and 1 µM MEK1 K97R were added to the reaction wells corresponding to the compound incubation, and mixed evenly by shaking, and preincubation was performed in a constant temperature incubator at 37°C for 60 min for enzymatic reaction. After the reaction was completed, 5 µL of the above reaction product was pipetted to another 384-well plate, and 5 µL of formulated ADP-Glo™ Reagent (Promega, V9101) was added and mixed evenly by pipetting, and then the plate was placed at room temperature for 40 min. 10 µL Kinase Detection Reagent was added to the 384-well plate and incubated at room temperature for 40 min. Finally, a microplate reader (BMG LRBTECH) was used and Luminescence module was selected to detect the LUM fluorescence value of each well (the gain value was fixed at 3600), and the formula Inhibition rate% = (1−(LUM Compound−LUM Background)/(LUM Solvent−LUM Background))∗100% [formula] was used to calculate the inhibition rate of the compound on BRAFV600E. The Graphpad software log(inhibitor) vs. response -- Variable slope (four parameters) equation was used to perform fitting analysis and calculate the IC50value of the sample.

[4] = Pharmacokinetic test in mice; type: in vivo, ICR mice; details: i.g. (10 mg/kg), relative to Control compound 1
[5] = Pharmacokinetic test in mice; type: in vivo, ICR mice; details: mouse, plasma; for Vd: read-out: Vdss
Method: 3.1 Experimental animals: Male ICR mice, 20-25 g, 6 mice/compound, purchased from Chengdu Dossy Experimental Animals Co., Ltd.
3.2 Experimental design: On the day of the experiment, the ICR mice were randomly grouped according to their body weights. The animals were fasted with water available for 12-14 h one day before the administration, and were fed 4 h after the administration. Table 3.1 Administration information
vehicle for intravenous administration: 5% DMA + 5% Solutol + 90% Saline; vehicle for intragastric administration: 0.5% MC
Before and after administration, 0.06 mL of blood was taken from the orbit under isoflurane anaesthesia and placed in an EDTAK2 centrifuge tube. The tube was centrifuged at 5000 rpm at 4°C for 10 min, and plasma was collected. The blood sampling time points for both the intravenous administration group and intragastric administration group were 0 min, 5 min, 15 min, 30 min, 1 h, 2 h, 4 h, 7 h, 24 h, and 48 h. Before analysis and detection, all samples were stored at -80°C, and the samples were quantitatively analysed by LC-MS/MS. Table 3.2 Pharmacokinetic parameters of test compounds in plasma of mice

[6] = Liver microsomal stability test (monkey liver microsomal model); type: in vitro ADME; details: monkey liver microsomes, 1 µM test compound, NADPH, 37°C
Method: In this experiment, liver microsomes of five species, including human, monkey, dog, rat and mouse, were used as in vitro models to evaluate the metabolic stability of the test compound.
At 37°C, 1 µM of the test compound was co-incubated with microsomal protein and coenzyme NADPH. At given time points of the reaction (5 min, 10 min, 20 min, 30 min, and 60 min), the reaction was terminated by adding ice-cold acetonitrile containing an internal standard. The LC-MS/MS method was used to measure the concentration of the test compound in the sample. T1/2 was calculated using the ln value of the percentage of drug remaining in the incubation system and the incubation time. In addition, the intrinsic clearance in liver microsomes CLint(mic) and the intrinsic clearance in liver CLint(Liver) were further calculated. Table 6 Results of test compounds in monkey liver microsomal model

[7] = Inhibitory activities of compounds on A375 cells, read-out: IC50/nM
[8] = A375 cells, values in text, read-out: IC50

IC50 [1, 7]: ≤ 10 nM
Structure (SMILES): N#Cc1c(NS(=O)(=O)N2CCC(=CF)C2)ccc(F)c1Oc1ccc2ncn(CC(F)F)c(=O)c2c1 (single isomer, unassigned) [Compound 15]

IC50 [1, 7]: ≤ 10 nM
Structure (SMILES): Cc1nnc2c3cc(Oc4c(F)ccc(NS(=O)(=O)N5CC6(CCC6)C5)c4C#N)ccc3ncn12 [Compound 1]

IC50 [1, 7]: 10 to 50 nM
Structure (SMILES): N#Cc1c(NS(=O)(=O)N2CC3(CCC3)C2)ccc(F)c1Oc1ccc2ncc(N3CCOCC3)nc2c1 [Compound 2]

Structure (SMILES): C=C1CN(S(=O)(=O)Nc2ccc(F)c(Oc3ccc4ncn(CC(F)F)c(=O)c4c3)c2C#N)C1 [Compound 3]
AUC(0-t) ([2]; iv, i.v. (2.5 mg/kg)): 41 µg·h/mL | clearance ([2]; iv, i.v. (2.5 mg/kg)): 0.091 mL/min/kg | half-life ([2]; iv, i.v. (2.5 mg/kg)): 19.1 h | Vd ([2]; iv, i.v. (2.5 mg/kg)): 0.126 L/kg | bioavailability ([2]; po, i.g. (10 mg/kg)): 62.8% | AUC(0-t) ([2]; po, i.g. (10 mg/kg)): 1030 µg·h/mL | half-life ([2]; po, i.g. (10 mg/kg)): 13.9 h | IC50 [3]: ≤ 10 nM | Fold change in brain-blood ratio relative to control compound [4]: 10.8 | AUC(0-t) ([5]; iv, i.v. (2.5 mg/kg)): 225 µg·h/mL | clearance ([5]; iv, i.v. (2.5 mg/kg)): 0.186 mL/min/kg | half-life ([5]; iv, i.v. (2.5 mg/kg)): 8.68 h | Vd ([5]; iv, i.v. (2.5 mg/kg)): 0.112 L/kg | bioavailability ([5]; po, i.g. (10 mg/kg)): 84.5% | AUC(0-t) ([5]; po, i.g. (10 mg/kg)): 762 µg·h/mL | half-life ([5]; po, i.g. (10 mg/kg)): 10.3 h | IC50 [1, 8]: 0.14 nM | IC50 [1, 7]: ≤ 10 nM | Percentage of drug remaining after 60 min of incubation [6]: 56.1%

IC50 [1, 7]: 10 to 50 nM
Structure (SMILES): CC(C)=C1CN(S(=O)(=O)Nc2ccc(F)c(Oc3ccc4ncn(CC(F)F)c(=O)c4c3)c2C#N)C1 [Compound 4]

IC50 [1, 7]: ≤ 10 nM
Structure (SMILES): C=C1CN(S(=O)(=O)Nc2ccc(F)c(Oc3ccc4ncn(CCF)c(=O)c4c3)c2C#N)C1 [Compound 5]

Fold change in brain-blood ratio relative to control compound [4]: 24.9 | AUC(0-t) ([5]; in vivo, iv, i.v. (2.5 mg/kg)): 148 µg·h/mL | clearance ([5]; in vivo, iv, i.v. (2.5 mg/kg)): 0.282 mL/min/kg | half-life ([5]; in vivo, iv, i.v. (2.5 mg/kg)): 6.77 h | Vd ([5]; in vivo, iv, i.v. (2.5 mg/kg)): 0.118 L/kg | AUC(0-t) ([5]; in vivo, po, i.g. (10 mg/kg)): 373 µg·h/mL | half-life ([5]; in vivo, po, i.g. (10 mg/kg)): 4.47 h | IC50 [1, 7]: ≤ 10 nM
Structure (SMILES): C=C1CCN(S(=O)(=O)Nc2ccc(F)c(Oc3ccc4ncn(CC(F)F)c(=O)c4c3)c2C#N)C1 [Compound 6]

Structure (SMILES): CC=C1CN(S(=O)(=O)Nc2ccc(F)c(Oc3ccc4ncn(CC(F)F)c(=O)c4c3)c2C#N)C1 [Compound 7]
AUC(0-t) ([2]; iv, i.v. (2.5 mg/kg)): 376 µg·h/mL | clearance ([2]; iv, i.v. (2.5 mg/kg)): 0.109 mL/min/kg | half-life ([2]; iv, i.v. (2.5 mg/kg)): 14.2 h | Vd ([2]; iv, i.v. (2.5 mg/kg)): 0.096 L/kg | bioavailability ([2]; po, i.g. (10 mg/kg)): 81.3% | AUC(0-t) ([2]; po, i.g. (10 mg/kg)): 1220 µg·h/mL | half-life ([2]; po, i.g. (10 mg/kg)): 13.5 h | IC50 [3]: ≤ 10 nM | Fold change in brain-blood ratio relative to control compound [4]: 10.5 | AUC(0-t) ([5]; iv, i.v. (2.5 mg/kg)): 228 µg·h/mL | clearance ([5]; iv, i.v. (2.5 mg/kg)): 0.171 mL/min/kg | half-life ([5]; iv, i.v. (2.5 mg/kg)): 12.8 h | Vd ([5]; iv, i.v. (2.5 mg/kg)): 0.156 L/kg | bioavailability ([5]; po, i.g. (10 mg/kg)): 90.6% | AUC(0-t) ([5]; po, i.g. (10 mg/kg)): 825 µg·h/mL | half-life ([5]; po, i.g. (10 mg/kg)): 10.7 h | IC50 [1, 8]: 0.66 nM | IC50 [1, 7]: ≤ 10 nM | Percentage of drug remaining after 60 min of incubation [6]: 48.2%

IC50 [1, 7]: 10 to 50 nM
Structure (SMILES): C=C1CC(Cn2cnc3ccc(Oc4c(F)ccc(NS(=O)(=O)N5CC6(CCC6)C5)c4C#N)cc3c2=O)C1 [Compound 9]
